Assay results as given in patent US6436962B1, “Arylhydantoin derivatives and uses thereof” (Merck & Co., Inc., priority 1999, dated 2002).
Where a name gives a salt, the structure may show the parent alone.

System: not given
Test: not given
Conditions: not given

Row | Compound | melting point [°C]
1 | COCN1C(=O)N(CCCN2CCC(C#N)(c3ccccc3C)CC2)C(=O)C1(c1ccc(C)cc1)c1ccc(C)cc1 | 53 to 55
2 | Cc1ccc(C2(c3ccc(C)cc3)NC(=O)N(CCCN3CCC4(CC3)C(=O)Nc3ccccc34)C2=O)cc1 (as salt: hydrochloride) [Compound 21, 3-{3-(spiro[3H-indole-3,4′-piperidin]-2(1H)-on-1′-yl)propyl}-5,5-bis(4-methylphenyl)-imidazolin-2,4-dione hydrochloride] | > 210
3 | Cc1ccc(C2(c3ccc(C)cc3)NC(=O)N(CCCN3CCN(c4ccccc4C(N)=O)CC3)C2=O)cc1 (as salt: hydrochloride) [Compound 25, 3-{3-[4-(2-aminocarbonylphenyl)-piperazin-1-yl]propyl}-5,5-bis(4-methylphenyl)-imidazolin-2,4-dione dihydrochloride] | 160 to 163
4 | Cc1ccc(C2(c3ccc(C)cc3)NC(=O)N(CCCN3CCN(c4ccccc4C#N)CC3)C2=O)cc1 (as salt: hydrochloride) [Compound 27, 3-{3-[4-(2-cyanophenyl)-piperazin-1-yl]propyl}-5,5-bis(4-methylphenyl)-imidazolin-2,4-dione hydrochloride] | 236
5 | COC(=O)C1CN(CCCN2C(=O)NC(c3ccc(C)cc3)(c3ccc(C)cc3)C2=O)CCC1Nc1ccccc1Cl.Cl (racemic) | 160 to 163
6 | CC1(c2ccccc2)NC(=O)N(CCCN2CCC(C#N)(c3ccccc3)CC2)C1=O (racemic) (as salt: hydrochloride) | 222 to 223
7 | Cc1ccc(C2(c3ccc(C)cc3)NC(=O)N(CCCN3CCC(n4c(=O)[nH]c5cc(Cl)ccc54)CC3)C2=O)cc1 [Compound 34, 3-{3-[4-(5-chloro-2-oxo-1-benzimidazolinyl)piperidin-1-yl]propyl}-5,5-bis(4-methylphenyl)-imidazolin-2,4-dione] | 144 to 155

Molecular target: T1, human alpha 1a adrenergic receptor (Homo sapiens, UniProt P35348)
T1 sequence (P35348 1-466): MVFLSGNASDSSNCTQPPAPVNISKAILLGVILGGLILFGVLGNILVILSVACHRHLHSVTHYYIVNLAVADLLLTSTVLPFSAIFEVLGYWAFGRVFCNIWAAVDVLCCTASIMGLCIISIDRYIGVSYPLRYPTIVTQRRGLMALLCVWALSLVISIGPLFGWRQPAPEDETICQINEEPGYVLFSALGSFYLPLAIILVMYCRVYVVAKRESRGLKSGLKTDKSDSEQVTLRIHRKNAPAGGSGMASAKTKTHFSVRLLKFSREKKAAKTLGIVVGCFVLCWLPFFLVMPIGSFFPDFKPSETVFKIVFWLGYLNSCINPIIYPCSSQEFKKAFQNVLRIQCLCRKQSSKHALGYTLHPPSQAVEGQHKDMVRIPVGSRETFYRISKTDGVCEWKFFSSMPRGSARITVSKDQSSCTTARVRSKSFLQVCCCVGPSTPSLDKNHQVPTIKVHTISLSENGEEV
Test: Screening assay: alpha 1a adrenergic receptor binding ([125I]-HEAT competition)
Conditions: membranes from stably transfected human alpha 1a cell line (ATCC CRL 11140), 100 pM [125I]-HEAT
Procedure: Screening Assay: Alpha 1a Adrenergic Receptor Binding
These competition binding reactions (total volume=200 μl) contained 50 mM Tris-HCl pH. […] Reactions were incubated at room temperature for one hour with shaking. Reactions were filtered onto Whatman GF/C glass fiber filters with a Inotec 96 well cell harvester. Filters were washed three times with ice cold buffer and bound radioactivity was determined (Ki).

Row | Compound | Ki [µM]
8 | Cc1ccc(C2(c3ccccc3)NC(=O)N(CCCN3CCC(C#N)(c4ccccc4)CC3)C2=O)cc1 (racemic) [Compound 11, (+/−)-3-{3-[4-phenyl4-cyanopiperidin-1-yl]propyl-}5-(4-methylphenyl)-5-phenyl-imidazolin-2,4-dione trifluoroacetate] | < 0.02
9 | Cc1ccc(C2(c3ccccn3)NC(=O)N(CCCN3CCC(C#N)(c4ccccc4C)CC3)C2=O)cc1 (racemic) [Compound 13, (+/−)-3-{3-[4-(2-methylphenyl)-4-cyanopiperidin-1-yl]propyl}-5-(4-methylphenyl)-5-(2-pyridyl)-imidazolin-2,4-dione] | < 0.02
10 | CCCCCC1(c2ccc(C)cc2)NC(=O)N(CCCN2CCC(C#N)(c3ccccc3C)CC2)C1=O (racemic) [Compound 16] | < 0.02
11 | CCCCCC1(c2ccc(F)c(F)c2)NC(=O)N(CCCN2CCC(C#N)(c3ccccc3C)CC2)C1=O (racemic) [Compound 17, (+/−)-3-{3-[4-(2-methylphenyl)-4-cyanopiperidin-1-yl]propyl}-5-pentyl-5-(3,4-difluoro-phenyl)-imdazolin-2,4-dione hydrochloride] | < 0.02
12 | Cc1ccc(C2(C(C)C)NC(=O)N(CCCN3CCC(C#N)(c4ccccc4C)CC3)C2=O)cc1 (racemic) [Compound 31, (+/−)-3-{3-[4-(2-methylphenyl)4-cyanopiperidin-1-yl]propyl}-5-isopropyl-5-(4-methylphenyl)-imidazolin-2,4-dione hydrochloride] | < 0.02
13 | Cc1ccc(C2(c3ccc(C)cc3)NC(=O)N(CCCN3CCC(C#N)(c4ccccc4)CC3)C2=O)cc1 [Compound 1, 3-[3-(4-Phenyl-4-cyanopiperidin-1-yl)propyl]-5,5-bis(4-methylphenyl)-imidazolin-2,4-dione] | < 0.02
14 | Cc1ccc(C2(c3ccc(C)cc3)NC(=O)N(CCCN3CCC(c4ccccn4)CC3)C2=O)cc1 [Compound 3, 3-{3-[4-(2-Pyridyl)piperidin-1-yl]propyl}-5,5-bis(4-methylphenyl)-imidazolin-2,4-dione] | < 0.02
15 | Cc1ccc(C2(c3ccc(C)cc3)NC(=O)N(CCCN3CCC4(C=Cc5ccccc54)CC3)C2=O)cc1 [Compound 4, 3-{3-(spiro[1H-indeno-1,4′-piperidin]-1′-yl)propyl}-5,5-bis(4-methylphenyl)-imidazolin-2,4-dione] | < 0.02
16 | Cc1ccc(C2(c3ccc(C)cc3)NC(=O)N(CCCN3CCC4(CC3)C(=O)Cc3ccccc34)C2=O)cc1 [Compound 5, 3-{3-(2,3-dihydro-spiro[indeno-1,4′-piperidin]-2(3H)-on-1′-yl)propyl}-5,5-bis(4-methylphenyl)-imidazolin-2,4-dione] | < 0.02
17 | Cc1ccc(C2(c3ccc(C)cc3)NC(=O)N(CCCN3CCC4(CC3)OC(=O)Nc3ccccc34)C2=O)cc1 [Compound 6, 3-{3-(spiro[4H-3,1-benzoxazine-4,4′-piperidin]-2(1H)-on-1′-yl)propyl}-5,5-bis(4-methylphenyl)-imidazolin-2,4-dione] | < 0.02
18 | Cc1ccc(C2(c3ccc(C)cc3)NC(=O)N(CCCN3CCC4(CC3)OC(=O)Nc3ccc(Cl)cc34)C2=O)cc1 [Compound 7, 3-{3-(6-chloro-spiro[4H-3,1-benzoxazine-4,4′-piperidin]-2(1H)-on-1′-yl)propyl}-5,5-bis(4-methylphenyl)-imidazolin-2,4-dione] | < 0.02
19 | Cc1ccc(C2(c3ccc(C)cc3)NC(=O)N(CCCN3CCC4(CC3)OC(=O)N(C)c3ccc(Cl)cc34)C2=O)cc1 [Compound 8, 3-{3-(1-methyl-6-chloro-spiro[4H-3,1-benzoxazine-4,4′-piperidin]-2(1H)-on-1′yl)propyl}5,5-bis(4-methylphenyl)-imidazolin-2,4-dione] | < 0.02
20 | Cc1ccc(C2(c3ccc(C)cc3)NC(=O)N(CCCN3CCC4(CC3)OC(=O)N(C)c3ccccc34)C2=O)cc1 [Compound 9] | < 0.02
21 | N#CC1(c2ccccc2)CCN(CCCN2C(=O)NC(c3ccc(Cl)cc3)(c3ccc(Cl)cc3)C2=O)CC1 [Compound 10, 3-{3-[4-phenyl-4-cyanopiperidin-1-yl]propyl}-5,5-bis(4-chlorophenyl)-imidazolin-2,4-dione hydrochloride] | < 0.02
22 | Cc1ccccc1C1(C#N)CCN(CCCN2C(=O)NC(c3ccc(F)cc3)(c3ccc(F)cc3)C2=O)CC1 [Compound 12, 3-{3-[4-(2-methylphenyl)-4-cyanopiperidin-1-yl]propyl}-5,5-bis(4-fluorophenyl)-imidazolin-2,4-dione hydrochloride] | < 0.02
23 | CN1C(=O)OC2(CCN(CCCN3C(=O)NC(c4ccc(Cl)cc4)(c4ccc(Cl)cc4)C3=O)CC2)c2cc(Cl)ccc21 [Compound 14, 3-{3-(1-methyl-6-chloro-spiro[4H-3,1-benzoxazine-4,4′-piperidin]-2(1H)-on-1′-yl)propyl}1-5,5-bis(4-chlorophenyl)-imidazolin-2,4-dione] | < 0.02
24 | Cc1ccc(C2(c3ccc(C)cc3)NC(=O)N(CCCN3CCC4(CC3)C(=O)Nc3ccccc34)C2=O)cc1 [Compound 21, 3-{3-(spiro[3H-indole-3,4′-piperidin]-2(1H)-on-1′-yl)propyl}-5,5-bis(4-methylphenyl)-imidazolin-2,4-dione hydrochloride] | < 0.02
25 | Cc1ccc(C2(c3ccc(C)cc3)NC(=O)N(CCCN3CCC4(CC3)OC(=O)Nc3ccc(F)cc34)C2=O)cc1 [Compound 23, 3-{3-(6-fluoro-spiro[4H-3,1-benzoxazine4,4′-piperidin]-2(1H)-on-1′-yl)propyl}bis(4-methylphenyl)-imidazolin-2,4-dione] | < 0.02
26 | Cc1ccc(C2(c3ccc(C)cc3)NC(=O)N(CCCN3CCN(c4ccccc4C(N)=O)CC3)C2=O)cc1 [Compound 25, 3-{3-[4-(2-aminocarbonylphenyl)-piperazin-1-yl]propyl}-5,5-bis(4-methylphenyl)-imidazolin-2,4-dione dihydrochloride] | < 0.02
27 | Cc1ccc(C2(c3ccc(C)cc3)NC(=O)N(CCCN3CCC(c4ccc(F)cc4C#N)CC3)C2=O)cc1 [Compound 26] | < 0.02
28 | Cc1ccc(C2(c3ccc(C)cc3)NC(=O)N(CCCN3CCN(c4ccccc4C#N)CC3)C2=O)cc1 [Compound 27, 3-{3-[4-(2-cyanophenyl)-piperazin-1-yl]propyl}-5,5-bis(4-methylphenyl)-imidazolin-2,4-dione hydrochloride] | < 0.02
29 | Cc1ccc(C2(c3ccc(C)cc3)NC(=O)N(CCCCN3CCC4(C=Cc5ccccc54)CC3)C2=O)cc1 [Compound 28, 3-{4-(spiro[indeno-1,4′-piperidin]-1′-yl)butyl}-5,5-bis(4-methylphenyl)-imidazolin-2,4-dione] | < 0.02
30 | Cc1ccc(C2(c3ccc(C)cc3)NC(=O)N(CCCN3CCC4(CC3)OC(=O)N(CC(F)(F)F)c3ccc(Cl)cc34)C2=O)cc1 [Compound 29, 3-{3-[1-(2,2,2-trifluoroethyl)-6-chloro-spiro[4H-3,1-benzoxazine-4,4′-piperidin]-2(1H)-on-1′-yl]propyl}-5,5-bis(4-methylphenyl)-imidazolin-2,4-dione] | < 0.02
31 | Cc1ccc(C2(c3ccc(C)cc3)C(=O)N(CCCN3CCC(C#N)(c4ccccc4C)CC3)C(=O)N2C)cc1 [Compound 36, 1-Methyl-3-{3-[4-(2-methylphenyl)-4-cyanopiperidin-1-yl]propyl}-bis-5,5-(4-methylphenyl)-imidazolin-2,4-dione] | < 0.02
